This is an account of results in the NIST ThermoML archive (doi:10.1021/je900557u).

Numbers after ± are expanded uncertainties.

For data set [1] the following is noted: 298.15 K; 101.33 kPa; Liquid; Vibrating tube method.
Data set [2] can be described thus: refractive index (Na D-line) (dimensionless). The settings on record: 298.15 K; 101.33 kPa; Liquid; refractometer.
Data set [3] can be described thus: xn = mol fraction of the nth substance listed. Particulars: 298.15 K, 101 kPa, Liquid, Vibrating tube method.

As for `CCOS(=O)(=O)[O-].CC[n+]1cccc(C)c1` [1-ethyl-3-methylpyridinium ethylsulfate], the mass density (as a rule, the mass of a sample divided by its volume) in data set [1] stood at 1219.61 ± 0.42 kg/m3. In data set [2], the refractive index (in general, the speed of light in vacuum divided by its phase velocity in the sample) is listed as 1.50591 ± 0.00024.
For `CCc1ccccc1` [ethylbenzene] the same measures were 862.51 ± 0.11 kg/m3 and 1.49304 ± 0.00014.
With `CCc1ccccc1` [ethylbenzene] + CCCCCC, the mass density in data set [3] (x2 = 0) was found to be 862.51 ± 0.11 kg/m3; in data set [3] (x2 = 0.0903) it was 843.13 ± 0.28 kg/m3; in data set [3] (x2 = 0.1776), 824.35 ± 0.29 kg/m3; in data set [3] (x2 = 0.2675) it was 805.21 ± 0.29 kg/m3; in data set [3] (x2 = 0.3777) it was 781.93 ± 0.29 kg/m3; in data set [3] (x2 = 0.4931), 757.81 ± 0.3 kg/m3. Moreover, the mass density in data set [3] (x2 = 0.5929) stood at 737.22 ± 0.31 kg/m3; in data set [3] (x2 = 0.6947) it was 716.43 ± 0.32 kg/m3; in data set [3] (x2 = 0.7984), 695.45 ± 0.33 kg/m3; in data set [3] (x2 = 0.8942), 676.28 ± 0.34 kg/m3.
For `CCCCCC` [hexane], the mass density in data set [1] amounted to 655.19 ± 0.26 kg/m3. Further, in data set [2], the refractive index is reported as 1.37234 ± 0.00024.
On to `CCCCCC` [hexane] + CCc1ccccc1, for which, in data set [3] (x1 = 1), the mass density is recorded as 655.19 ± 0.25 kg/m3.
For the compound `CCCCCC` [hexane] + Cc1ccccc1, the mass density in data set [3] (x1 = 0.083) was found to be 841.73 ± 0.31 kg/m3; in data set [3] (x1 = 0.1713), 820.75 ± 0.3 kg/m3; in data set [3] (x1 = 0.298), 791.72 ± 0.3 kg/m3; in data set [3] (x1 = 0.396) it was 770.3 ± 0.3 kg/m3; in data set [3] (x1 = 0.5011), 748.44 ± 0.3 kg/m3; in data set [3] (x1 = 0.5949), 729.53 ± 0.3 kg/m3. Besides, the mass density was 709.61 ± 0.3 kg/m3 in data set [3] (x1 = 0.6973), 691.1 ± 0.31 kg/m3 in data set [3] (x1 = 0.7961), 673.45 ± 0.32 kg/m3 in data set [3] (x1 = 0.8946) and 655.19 ± 0.25 kg/m3 in data set [3] (x1 = 1).
Consider `Cc1ccccc1` [toluene], for which the mass density in data set [1] worked out at 862.17 ± 0.11 kg/m3. Moreover, the refractive index in data set [2] was determined as 1.49399 ± 0.00014.
As to `Cc1ccccc1` [toluene] + CCCCCC, the mass density in data set [3] (x2 = 0) is on record as 862.17 ± 0.11 kg/m3.
